Laboratory results reported in patent publication US20220056018A1, “SREBP INHIBITORS COMPRISING A THIOPHENE CENTRAL RING” (Capulus Therapeutics, LLC, priority 2019, published 2022).

Tests used:
SREBP = test: Reporter Screening Assay (SRE-luciferase reporter, HepG2); type: cell-based; settings: Homo sapiens; SRE-luciferase reporter HepG2 cells, 24 hours, 0.01 uM to 10 uM; read-out: I: Reporter Screening Assay (Ave EC50 (nM))
Method: Reporter Screening Assay: This assay was used to evaluate the effect on transcriptional activity SREBP of selected compounds using an SRE-luciferase reporter construct. On day 1, 10,000 cells were seeded in a 96 well (white) plate as per the plate map in Growth media without antibiotics. Cells were incubated at 37° C. for 8 hours. After 8 hours, cells were washed with DPBS for complete removal of FBS. DPBS was completely removed and Growth media was replaced with phenol free treatment medium (90 μl) with different FBS concentrations. The cells were then incubated at 37° C. for 24 hours with varying doses (0.01 uM to 10 uM) of compounds. Then a Luciferase assay was performed.
Reagents for performing Luciferase assay were stored at −20° C. To a tube of lyophilized assay substrate was added 1 mL Substrate Solvent and mixed well. The Substrate tube after reconstitution was covered with aluminum foil so as to keep it protected from light. The assay buffer was thawed to room temperature. To 20 mL Assay Buffer was added 200 μL of reconstituted 100× Substrate and mixed well. The reconstituted substrate as well as the assay solution (buffer+substrate) was protected from light throughout the procedure by keeping it covered with aluminum foil. Using a multi-channel pipette, 100 μL Assay Solution (buffer+substrate) was added directly to each sample well in Plate 1, which was incubated for 30 min (plate was covered with aluminum foil). After 30 min incubation, the plate was read for total luminescence. Each well was read for 2 seconds in a plate luminometer. (Microplate reader Envision Microplate reader from Perkin Elmer). Precaution was taken to incubate plate exactly for 30 min prior to reading on the plate reader.
SREBPv1 Reporter cell line: HepG2—#32251. Growth Medium: MEM (Corning 10-010), 10% FBS, 1% GlutaMax (Invitrogen Catalog #35050061), […] (Invitrogen Catalog # A1113803) and 1% Penicillin-Streptomycin (Pen-Strep). Treatment Media: Phenol-free MEM (Invitrogen Catalog #51200-038) and 1% GlutaMax (Invitrogen Catalog #35050061). Luciferase Assay: LightSwitch Luciferase Assay Kit (Catalog #32032). LDH assay: Pierce LDH Cytotoxicity Assay Kit (Catalog # SD249616).

[1] = Stability in mouse liver microsomes; type: in vitro ADME
Method: (§1) Compounds were evaluated for stability in human liver microsomes. A 10 mM stock solution of the compound being evaluated was prepared in DMSO and diluted with water:acetonitrile (1:1) to a concentration of 1 mM. A working concentration of 100 μM was prepared by further dilution with water:acetonitrile (1:1). To make the preincubation mixture, 2.5 μL of the diluted compound was combined with 75 μL of human liver microsomes at 3.33 mg/mL, and 85 μL of 100 mM potassium phosphate buffer, and this mixture was pre-incubated for 10 min at 37° C. To make the 60 minute mixture without cofactor, 32.5 μL of the preincubation mixture was combined with 17.5 μL of 100 mM potassium phosphate buffer and incubated for 60 min at 37° C. To make the 0 min sample with cofactor (NADPH), 16.25 μL of the preincubation mixture was combined with 200 μL of acetonitrile containing internal standard and 8.75 μL of cofactor (NADPH). To make the incubation mixture, 62 μL of cofactor (2.85 mM) was combined with the remaining incubation mixture, and incubated for 60 min at 37° C. To prepare the sample mixture to be evaluated, 25 μL incubation mixture was combined with 200 μL of acetonitrile containing internal standard and vortexed for 5 min at 1200 rpm, then centrifuged for 10 min at 4000 rpm. The supernatant was diluted 2 fold with water and injected on LC-MS/MS. The sample mixture was evaluated by LC-MS/MS using 10 mM ammonium acetate with 0.100 FA as the aqueous mobile phase, and methanol as the organic mobile phase.
Half-Life Mouse Microsomes:
Compounds were evaluated in mouse liver microsomes following a similar procedure as described above for human liver microsomes. A similar procedure could be used to evaluate compounds in rat liver microsomes.

[2] = Stability in human liver microsomes; type: in vitro ADME; settings: 37° C., NADPH
Method: Half-Life Human Microsomes:
as §1

| SMILES | EC50 (SREBP) | percent parent remaining after 60 min in liver microsomes [1] | percent of compound remaining after 60 min in human liver microsomes [2] |
| --- | --- | --- | --- |
| CC(C)OC(=O)Nc1ccc(-c2cc(-c3ccnc4c3OCCO4)cs2)c(Cl)c1 [Compound I-9062, isopropyl (3-chloro-4-(4-(2,3-dihydro-[1,4]dioxino[2,3-b]pyridin-8-yl)thiophen-2-yl)phenyl)carbamate] | < 249 nM | +++ (>60.1 = +++) | +++ (>60.1 = +++) |
| CC(C)(O)c1cc(-c2csc(-c3ccc(NS(C)(=O)=O)cc3Cl)c2)ccn1 [Compound I-9064, N-(3-chloro-4-(4-(2-(2-hydroxypropan-2-yl)pyridin-4-yl)thiophen-2-yl)phenyl)methanesulfonamide] | < 249 nM | +++ (>60.1 = +++) | +++ (>60.1 = +++) |
| CC(C)(O)c1cc(-c2csc(-c3ccc(NC(=O)OC4CC4)cc3Cl)c2)ccn1 [Compound I-9065, cyclopropyl (3-chloro-4-(4-(2-(2-hydroxypropan-2-yl)pyridin-4-yl)thiophen-2-yl)phenyl)carbamate] | > 500 nM | +++ (>60.1 = +++) | +++ (>60.1 = +++) |
| O=C(Nc1ccc(-c2cc(-c3ccnc(C4(CO)CC4)c3)cs2)c(Cl)c1)OC1CC1 [Compound I-9082, cyclopropyl (3-chloro-4-(4-(2-(1-(hydroxymethyl)cyclopropyl)pyridin-4-yl)thiophen-2-yl)phenyl)carbamate] | > 500 nM | ++ (30.1-60 = ++) | +++ (>60.1 = +++) |
| CS(=O)(=O)Nc1ccc(-c2cc(-c3ccnc(O[C@@H]4COC[C@@H]4O)c3)cs2)c(Cl)c1 [Compound I-9108, N-(3-chloro-4-(4-(2-(((3R,4S)-4-hydroxytetrahydrofuran-3-yl)oxy)pyridin-4-yl)thiophen-2-yl)phenyl)methanesulfonamide] | > 500 nM | +++ (>60.1 = +++) | +++ (>60.1 = +++) |

Results, then the molecule that gave them:

| EC50 (SREBP) | percent parent remaining after 60 min in liver microsomes [1] | percent of compound remaining after 60 min in human liver microsomes [2] | SMILES |
| --- | --- | --- | --- |
| < 249 nM | +++ (>60.1 = +++) | +++ (>60.1 = +++) | CC(C)OC(=O)Nc1ccc(-c2cc(-c3ccnc(OC4CC4)c3)cs2)c(Cl)c1 [Compound I-9060, isopropyl (3-chloro-4-(4-(2-cyclopropoxypyridin-4-yl)thiophen-2-yl)phenyl)carbamate] |
| > 500 nM | +++ (>60.1 = +++) | +++ (>60.1 = +++) | CC(C)(O)C(O)c1cc(-c2csc(-c3ccc(NS(C)(=O)=O)cc3Cl)c2)ccn1 (stereo not drawn) [Compound I-9075, N-(3-chloro-4-(4-(2-(1,2-dihydroxy-2-methylpropyl)pyridin-4-yl)thiophen-2-yl)phenyl)methanesulfonamide] |
| > 500 nM | +++ (>60.1 = +++) | +++ (>60.1 = +++) | CC(C)(O)Cc1cc(-c2cc(-c3ccc(NS(C)(=O)=O)cc3Cl)sc2F)ccn1 [Compound I-9085, N-(3-chloro-4-(5-fluoro-4-(2-(2-hydroxy-2-methylpropyl)pyridin-4-yl)thiophen-2-yl)phenyl)methanesulfonamide] |
| > 500 nM | +++ (>60.1 = +++) | +++ (>60.1 = +++) | CC(O)(CO)c1cc(-c2csc(-c3ccc(NS(C)(=O)=O)cc3Cl)c2)ccn1 (stereo not drawn) [Compound I-9088, N-(3-chloro-4-(4-(2-(1,2-dihydroxypropan-2-yl)pyridin-4-yl)thiophen-2-yl)phenyl)methanesulfonamide] |
| > 500 nM | +++ (>60.1 = +++) | +++ (>60.1 = +++) | Cc1sc(-c2ccc(NS(C)(=O)=O)cc2Cl)cc1-c1ccnc(CC(C)(C)O)c1 [Compound I-9091, N-(3-chloro-4-(4-(2-(2-hydroxy-2-methylpropyl)pyridin-4-yl)-5-methylthiophen-2-yl)phenyl)methanesulfonamide] |
